One assay addresses T1, WT KIR2.1 (Homo sapiens, UniProt P63252).
T1 construct: expressed in transfected cells; host or cells: HEK293T
T1 sequence (P63252 1-427): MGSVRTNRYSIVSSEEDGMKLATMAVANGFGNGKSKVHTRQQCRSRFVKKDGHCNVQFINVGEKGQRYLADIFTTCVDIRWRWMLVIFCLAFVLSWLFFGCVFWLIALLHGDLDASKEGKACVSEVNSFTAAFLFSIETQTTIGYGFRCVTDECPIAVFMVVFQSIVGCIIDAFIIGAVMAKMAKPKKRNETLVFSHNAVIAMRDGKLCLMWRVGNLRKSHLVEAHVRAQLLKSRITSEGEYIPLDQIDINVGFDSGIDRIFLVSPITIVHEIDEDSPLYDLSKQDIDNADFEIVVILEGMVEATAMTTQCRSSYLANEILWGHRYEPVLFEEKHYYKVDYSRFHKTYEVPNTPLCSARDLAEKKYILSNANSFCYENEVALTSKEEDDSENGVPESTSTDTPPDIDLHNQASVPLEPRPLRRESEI
Put plainly: Western blot of KIR2.1 expression, transiently transfected HEK293T cells, WT. It counts as cell-based. To be noted: 24 h. As for the experimental part: HEK293T cells were grown in 60 mm culture dishes containing 3 mL DMEM supplemented with 10% FCS, L-Glutamine and Pen-Strep, and transfected using linear polyethylenimine (PEI) (PolysciencesInc, Eppelheim, Germany) as described earlier. Cell lysates were prepared in buffer D (20 mM HEPES, 125 mM NaCl, 10% glycerol, 1 mM EDTA, 1 mM EGTA, 1 mM dithiothreitol, and 1% Triton X-100, pH 7.6, supplemented with 1 mM PMSF and 10 μg/mL aprotinin). 20 μg protein lysate was separated by 10% SDS-PAGE and blotted onto nitrocellulose membrane. Ponceau staining was used to reveal equal protein loading and subsequent quantification. Blots were blocked with 5% (v/v) […] in TBST (20 mM Tris-HCl pH 8.0, 150 mM NaCl, 0.05% (v/v) Tween-20) for 1 h at room temperature. KIR2.1 WT and mutants were detected by N-terminal KIR2.1 antibody (Santa Cruz Biotechnology, Dallas Tx, USA, cat. No. sc-18708) and peroxidase-conjugated donkey anti-goat secondary antibody (Jackson ImmunoResearch, West Grove, PA, cat. No. 705-035-003) followed by ECL detection procedure (GE Healthcare, Hoevelaken, The Netherlands). For quantification purposes, untransfected HEK293T cells were used as blank and protein levels were normalized to ponceau staining levels. Differences between group averages were tested by using a one-way ANOVA with a Bonferroni’s post-hoc test.
For orientation: A western blot detects proteins with antibodies after separation by electrophoresis.

In a further assay the target is T2, V93I KIR2.1 (Homo sapiens, UniProt P63252, V93I).
T2 construct: expressed in transfected cells; host or cells: HEK293T
T2 sequence (P63252 1-427 V93I): T1 sequence (P63252 1-427) with V93I
Description: Whole cell patch clamp, V93I KIR2.1 currents. To be noted: whole cell mode. It counts as cell-based. On the procedure:
Mutations V93I and D172N were engineered into a human KCNJ2-pcDNA3 expression construct, using the QuikChange II XL Site-Directed Mutagenesis Kit (Stratagene, La Jolla, CA) and custom designed primers. The presence of the introduced mutations was confirmed by Sanger sequencing.
Whole cell patch clamp measurements were done as described before using an AxoPatch 200B amplifier controlled by pClamp9 software (Molecular devices, Sunnyvale, CA, USA) at 21 °C. Whole cell IKIR2.1 measurements were performed by applying 1 s test pulses ranging between −120 and +30 mV, in 10 mV increments, from a holding potential of −40 mV, and with series resistance compensation of at least 70%. Steady state current at the end of the pulse was normalized to cell capacitance and plotted versus test potential (corrected for liquid junction potential). Extracellular solution contained 140 mM NaCl, 5 mM KCl, 1 mM CaCl2, 1 mM MgCl2, 6 mM glucose, 17.5 mM NaHCO3, 15 mM HEPES, pH 7.4/NaOH. Pipette solution contained 125 mM potassium gluconate, 10 mM KCl, 5 mM HEPES, 5 mM EGTA, 2 mM MgCl2, 0.6 mM CaCl2, 4 mM Na2ATP, pH 7.20/KOH.
(In general: In patch-clamp work, channel activity is measured electrically.)

Setting [1] is: at −50 mV, read-out: Inhibition of outward IK1.
Setting [2] is: at −110 mV, read-out: Inhibition of inward IK1.

Each structure is given as a SMILES string. Numbering of substitutions follows the chain as printed. Like-named read-outs stand apart in the source and are kept apart here.

`N=C(Nc1ccc(OCCCCCOc2ccc(NC(=N)c3ccccc3)cc2)cc1)c1ccccc1` [PA-6]: the “Increase of KIR2.1 expression level” value on WT KIR2.1 (5 μM) was 6.3 ± 1.5 fold. The “Effect on KIR2.1 expression level at lower concentrations” value on WT KIR2.1 (0.2 and 1 μM) is listed as “did not result in significant increased expression”. Besides, on V93I KIR2.1 (setting [1]), the inhibition at 1 µM worked out at 18 ± 20% and the inhibition at 3 µM worked out at 77 ± 29%. On V93I KIR2.1 (setting [2]), the inhibition at 1 µM amounted to 28 ± 14% and the inhibition at 3 µM was 64 ± 4%. The same molecule displayed an IC50 against V93I KIR2.1 of 1000 to 3000 nM.

Broadly, the inhibition is how much of the control response was suppressed. As usually defined, the IC50 is the point on the concentration scale where inhibition reaches its midpoint. The low end stands for greater potency in that assay, the high end for weaker potency in that assay.
